From patent publication US6437157B1, “20-substituted steroids” (Hoechst Marion Roussel, priority 1994, dated 2002)

What was measured:
Sigma receptor [1] = test: Sigma receptor relative bond affinity (RBA), 3H PPP displacement, rat brain membranes; format: binding; conditions: for Relative bond affinity (RBA) for the Sigma receptor, Brain (rat): 3 nM 3H PPP, haloperidol set equal to 100; for Displacement of 3H PPP from the Sigma receptor (in words): also evaluated on testicles
Procedure: (§1) The relative bond affinity was evaluated for preparations of rat brain and testicle membranes.
(§2) Male Sprague-Dawley rats originating from Iffa Credo and weighing approximately 200 g were used. The animals were scarified by decapitation and the brain and testicles were removed and homogenized in 10 to 25 volumes of 50 mM Tris-HCl buffer (pH 7.7) at 4° C. using an Ultrathurax. The homogenates were centrigued at 30,000 g for 15 minutes at 4° C. and the pellets were washed 3 times by resuspension in the same buffer and centrifugation under the same conditions. The membranes obtained in this way were stored at −80° C.
(§3) The marker of the sigma receptors used was ^3H PPP (propyl-3-(propyl-3-(3-hydroxyphenyl)-piperidine) of NEN having a specific activity of 3404 GBq/mmol. The membranes were suspended in the 50 mM Tris-HCl buffer, pH 8.0 to obtain a concentration of proteins of approximately 0.6 mg/ml for the testicles and 1 mg/ml for the brain. Aliquots of the homogenate were incubated for 90 minutes at 25° C. in a total volume of 0.5 ml with 3 nM of ^3H PPP in the presence of increasing concentrations of reference product (haloperidol) or of the products to be tested. At the end of the incubation, the 3H PPP bound to the membranes was separated from the free ^3H PPP by rapid filtration on Whatman GF/C filters pre-treated beforehand with 0.05% of polyethyleneimine. The precipitate was washed twice with 5 ml of Tris-HCl buffer and the radioactivity was counted after the addition of 20 ml of Aqualyte scintillating liquid (Baker).
(§4) The following two curves were drawn: percentage of bound tritiated marker 100×B/BO as a function of the logarithm of the concentration of unlabelled reference product or as a function of the logarithm of the concentration of unlabelled test product. The straight line of the following equation was determined:
(§5) BO=concentration of the bound tritiated marker in the absence of any unlabelled product.
B=concentration of the bound tritiated marker in the presence of a concentration X of unlabelled product.
Bmin=concentration of the bound tritiated marker in the presence of a large excess of the unlabelled reference product (5,000 nM).
The intersections of the straight line I50 and the curves allowed the evaluation of the concentrations of the unlabelled reference product (CH) and of the unlabelled test product (CX) which inhibited by 50% the specific binding of the tritiated marker on the receptor. The relative bond affinity (RBA) of the test product was determined by the equation:
The RBA of the haloperidol was arbitrarily set equal to 100.

Sigma receptor [2] = test: Sigma receptor relative bond affinity (RBA), 3H PPP displacement, rat testicle membranes; format: binding; conditions: 3 nM 3H PPP, haloperidol set equal to 100
Procedure: as §1, §2, §3, §4, §5
B=concentration of the bound tritiated marker in the presence of a concentration X of unlabelled product. […]

human spermatozoids = test: Measurement of intracellular calcium in human spermatozoids (Fura2-AM fluorescence); format: cell-based
Procedure: The human sperm originated from healthy donors. […] The mobile spermatozoids were incubated for a minimum of 2 hours in the BWW/HSA capacitating medium and were then incubated at a concentration of 5-10×10^6/ml with Fura2-AM to a final concentration 2 μM at 37° C. for 45 minutes. After washing by centrifugation at 600 g for 10 minutes in. BWW without HSA, the spermatozoids were suspended at a concentration of 4×10^6/ml. The florescence signal was measured at 37° C. using a spectrofluorimeter at excitation wave lengths of 340 and 380 nm (PTIM 2001-Kontron) or at 340, 360 and 380 nm (Hitachi F 2000—B. Braun Science Tec.). The fluorescence emission was recorded at 505 nm. The progesterone or the products to be tested, dissolved in absolute ethanol, were added to the incubation medium at a final concentration of 0.1% of ethanol. When an antagonistic effect of the progesterone was sought, the product was added to the medium 2 minutes before the progesterone. At the end of the each dosage, 5 μM of ionomycin were added to the sample to measure the maximum fluorescence signal. […] These values allowed the intracellular concentration of calcium ([Ca^2+]i) to be calculated by the method described by Grunkiewicz et al. 1985, J. Biol. Chem., Vol. 260, pp. 3440-3450).

| SMILES | Relative bond affinity (RBA) for the Sigma receptor, Brain (rat) (Sigma receptor [1]) | Displacement of 3H PPP from the Sigma receptor (in words) (Sigma receptor [1]) | Relative bond affinity (RBA) for the Sigma receptor, Testicle (rat) (Sigma receptor [2]) | [Ca2+]i relative to the basal level set equal to 1 (human spermatozoids; 2 minutes pre-treatment with U 10^-5M + PROG. 10^-5M, Mean±SEM n=3) | [Ca2+]i relative to the basal level set equal to 1 (human spermatozoids; 2 minutes pre-treatment with U 10^-6M + PROG. 10^-5M, Mean±SEM n=3) | [Ca2+]i relative to the basal level set equal to 1 (human spermatozoids; 2 minutes pre-treatment with U 10^-7M + PROG. 10^-5M, Mean±SEM n=3) | [Ca2+]i relative to the basal level set equal to 1 (human spermatozoids; 2 minutes pre-treatment with U 10^-8M + PROG. 10^-5M, Mean±SEM n=3) | [Ca2+]i relative to the basal level set equal to 1 (human spermatozoids; Pre-treatment 2 mn with U 10^-5M + PROG. 10^-5M, Mean±SEM n=8) | Antagonistic effect on the progesterone-induced [Ca2+]i increase (in words) (human spermatozoids; Product U 10^-5M added 2 minutes before the progesterone) | [Ca2+]i relative to the basal level set equal to 1 (human spermatozoids; U 10^-5M alone, Mean±SEM n=8) | [Ca2+]i relative to the basal level set equal to 1 (human spermatozoids; PROG. 10^-5M alone, Mean±SEM n=3) | [Ca2+]i relative to the basal level set equal to 1 (human spermatozoids; PROG. 10^-5M alone, Mean±SEM n=8) | Effect on the intracellular calcium of human spermatozoids (in words) (human spermatozoids; progesterone 10^-5 M alone) |
| --- | --- | --- | --- | --- | --- | --- | --- | --- | --- | --- | --- | --- | --- |
| C[C@H](NCCN(C)C)[C@@H]1CC[C@@H]2[C@H]3CCc4cc(O)ccc4[C@@H]3CC[C@]21C [Example 1, (20S)(8α,9β,13α,14β,17α) 20-((dimethylamino)-ethyl)-amino-19-nor-Δ^1,3,5(10)-pregnatrien-3-ol] | 4.3 | capable of displacing ^3H PPP | 58.0 | 1.0 ± 0.0 | 2.63 ± 0.57 | 4.26 ± 1.93 | 3.33 ± 0.87 | 0.95 ± 0.05 | completely antagonized the effect of progesterone | 0.95 ± 0.05 | – | – | – |
| O=C(CCCN1CCC(O)(c2ccc(Cl)cc2)CC1)c1ccc(F)cc1 [Haloperidol] | 100.0 | – | 100.0 | – | – | – | – | – | – | – | – | – | – |
| CC(=O)[C@H]1CC[C@H]2[C@@H]3CCC4=CC(=O)CC[C@]4(C)[C@H]3CC[C@]12C [Progesterone, reference compound] | 0.7 | capable of displacing ^3H PPP | 0.3 | – | – | – | – | – | – | – | 3.67 ± 0.97 | 5.76 ± 0.84 | induced a transitory increase of the [Ca^2+]i |
